Tests used:
Assay type in all cases: in vivo
Stellaria media (STEME) = assay: Herbicidal pre-emergence action, section A (Table A9)
Procedure, shortened: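 Double sowings in sandy loam; soil-surface spray of WP/EC aqueous preparations, 0.5% additive, 600 l/ha water. Greenhouse, optimum conditions. Visual % damage at ~3 wk vs untreated (100% = dead, 0% = control-like).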

Veronica persica (VERPE) = assay: Herbicidal post-emergence action, section B (Table B10); settings: visual rating about 3 weeks after treatment vs untreated controls; for pest or weed control at 320 g/ha: Veronica persica, post-emergence, 504 h, read-out: post-emergence activity against VERPE in %
Procedure, shortened: (§1)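 Percent effect, judged by eye against untreated controls (0% = like control, 100% = plants dead), was recorded about 3 weeks after a foliar spray. The spray, at 600 liters per hectare with 0.5% additive, was applied to one-leaf-stage plants grown in sandy loam.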

[1] = test system: Triticum aestivum (TRZAS); assay: Pre-emergence effects on crop plants, section D (Table D2); settings: visual grading after ca. 3 weeks
Procedure, shortened: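 Pre-emergence soil-surface spray, 320 g/ha or below, 600 l water/ha + 0.5% additive; WP/EC formulations; sandy loam; greenhouse; visual % damage vs untreated at ~3 wk.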

[2] = test system: Triticum aestivum (TRZAS); assay: Post-emergence effects on crop plants, section F (Table F2); settings: for percent crop plant damage (wheat, post-emergence) at 80 g/ha / percent crop plant damage (wheat, post-emergence) at 320 g/ha: Triticum aestivum, 504 h, read-out: post-emergence activity against TRZAS in %; for post-emergence activity against TRZAS in %: crop plant damage
Procedure, shortened: (§2)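 After sowing in sandy loam and 2–3 weeks' greenhouse growth, single-leaf plants received foliar sprays (WP or EC, 0.5% additive, 600 l/ha water, ≤320 g/ha). Around 3 weeks on, herbicidal effect was estimated by eye, 0% meaning like controls and 100% meaning plants died.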

Brassica napus (BRSNW) = assay: Post-emergence effects on crop plants, section F (Table F5); settings: for post-emergence activity against BRSNW in %: crop plant damage
Procedure, shortened: as §2

[3] = test system: Matricaria inodora (MATIN); assay: Herbicidal post-emergence action, section B (Table B6); settings: application rate 1280 g/ha; visual rating about 3 weeks after treatment vs untreated controls
Experimental: (§3) Seeds of mono- and dicotyledonous weed plants were placed in plastic pots in sandy loam soil (doubly sown with in each case one species of mono- or dicotyledonous weed plants per pot), covered with soil and cultivated in a greenhouse under controlled growth conditions. 2 to 3 weeks after sowing, the test plants were treated at the one-leaf stage. The compounds of the invention, formulated in the form of wettable powders (WP) or as emulsion concentrates (EC), were applied onto the green parts of the plants as aqueous suspension or emulsion with addition of 0.5% additive at a water application rate of 600 liters per hectare (converted). After the test plants had been kept in the greenhouse under optimum growth conditions for about 3 weeks, the activity of the preparations was rated visually in comparison to untreated controls. For example, 100% activity=the plants have died, 0% activity=like control plants.

[4] = test system: Alopecurus myosuroides (ALOMY); assay: Herbicidal post-emergence action, section B (Table B2); settings: application rate 1280 g/ha, rated visually about 3 weeks after treatment vs untreated controls, 100% = plants have died, 0% = like control plants
Experimental: as §3

[5] = test system: Echinochloa crus-galli (ECHCG); assay: Herbicidal post-emergence action, section B (Table B3); settings: rated visually after about 3 weeks
Procedure, shortened: as §1

Setaria viridis (SETVI) = assay: Herbicidal post-emergence action, section E (Table E8); settings: visual assessment ca. 3 weeks after spraying
Source text: Seeds of mono- and dicotyledonous weed plants and crop plants were sown, in plastic or organic planting pots, in sandy loam, covered with soil and grown in a greenhouse under controlled growth conditions. 2 to 3 weeks after sowing, the test plants were sprayed in the single-leaf stage. The compounds according to the invention, formulated in form of wettable powders (WP) or as emulsifiable concentrates (EC), were sprayed onto the green plant parts as aqueous suspension or emulsion, with the addition of 0.5% of an additive, at an application rate of 600 l of water/ha (converted). The test plants were placed in the greenhouse for ca. 3 weeks under optimum growth conditions, and then the effect of the preparations was assessed visually in comparison with untreated controls (herbicidal effect in percent (%): 100% effect=plants have died off, 0% effect=as control plants).

[6] = Stellaria media, 504 h, application rate 1280 g/ha, read-out: pre-emergence activity against STEME in %
[7] = Brassica napus, 504 h, application rate 80 g/ha, read-out: post-emergence activity against BRSNW in %

Structure (SMILES): CCS(=O)(=O)N1C[S+]([O-])c2cc(C)c(-c3ccccc3C)nc21 (stereo not drawn) [Example I-074]
- pest or weed control at 320 g/ha (Stellaria media (STEME); Stellaria media, 504 h, application rate 320 g/ha, read-out: pre-emergence activity against STEME in %): 90%
- pest or weed control at 320 g/ha (Veronica persica (VERPE); application rate 320 g/ha): 90%
- pre-emergence activity against TRZAS in % (crop plant damage) ([1]; application rate 80 g/ha): 0%
- percent crop plant damage (wheat, post-emergence) at 80 g/ha ([2]; application rate 80 g/ha): 0%

Structure (SMILES): Cc1cc2c(nc1-c1cccc(C)c1F)NCS2 [Example I-113]
- post-emergence activity against BRSNW in % (Brassica napus (BRSNW); application rate 320 g/ha): 20%
- pre-emergence activity against STEME in % (Stellaria media (STEME); application rate 1280 g/ha): 90%
- post-emergence activity against MATIN in % [3]: 90%
- post-emergence activity against ALOMY [4]: 90%
- pre-emergence activity against TRZAS in % (crop plant damage) ([1]; application rate 320 g/ha): 10%
- post-emergence activity against TRZAS in % ([2]; application rate 320 g/ha): 20%

Structure (SMILES): BN1CSc2cc(Br)c(-c3ccccc3C)nc21 [Example I-011]
- pre-emergence activity against STEME in % (Stellaria media (STEME); application rate 1280 g/ha): 100%
- post-emergence activity against VERPE in % (Veronica persica (VERPE); application rate 1280 g/ha): 90%
- post-emergence activity against ECHCG in % ([5]; application rate 1280 g/ha): 90%
- post-emergence activity against TRZAS in % ([2]; application rate 80 g/ha): 0%

Structure (SMILES): Clc1ccccc1-c1nc2c(cc1Br)SCN2 [Example I-041, 6-bromo-5-(2-chlorophenyl)-2,3-dihydro[1,3]thiazolo[4,5-b]pyridine]
- pest or weed control at 1280 g/ha (Stellaria media (STEME); [6]): 100%
- pest or weed control at 320 g/ha (Veronica persica (VERPE); application rate 320 g/ha): 90%
- pest or weed control at 1280 g/ha ([4]; Alopecurus myosuroides, post-emergence, 504 h, read-out: post-emergence activity against ALOMY): 90%
- pest or weed control at 320 g/ha ([5]; Echinochloa crus-galli, 504 h, application rate 320 g/ha, read-out: post-emergence activity against ECHCG in %): 100%
- pre-emergence activity against TRZAS in % (crop plant damage) ([1]; application rate 320 g/ha): 20%
- percent crop plant damage (wheat, post-emergence) at 320 g/ha ([2]; application rate 320 g/ha): 0%

Structure (SMILES): CCc1ccccc1-c1nc2c(cc1C)[S+]([O-])CN2 (stereo not drawn) [Example I-047]
- crop plant damage (phytotoxicity) in % at 320 g/ha (Brassica napus (BRSNW); Brassica napus, 504 h, application rate 320 g/ha, read-out: post-emergence activity against BRSNW in %): 20%
- pest or weed control at 1280 g/ha (Stellaria media (STEME); [6]): 90%
- pest or weed control at 320 g/ha (Veronica persica (VERPE); application rate 320 g/ha): 90%
- pest or weed control at 1280 g/ha ([5]; Echinochloa crus-galli, 504 h, application rate 1280 g/ha, read-out: post-emergence activity against ECHCG in %): 90%
- pre-emergence activity against TRZAS in % (crop plant damage) ([1]; application rate 320 g/ha): 10%
- percent crop plant damage (wheat, post-emergence) at 320 g/ha ([2]; application rate 320 g/ha): 0%

Structure (SMILES): COCC1(C(=O)N2CSc3cc(C)c(-c4ccccc4F)nc32)CC(Cl)=NO1 (stereo not drawn) [Example I-128]
- pre-emergence activity against STEME in % (Stellaria media (STEME); application rate 320 g/ha): 90%
- post-emergence activity against SETVI in % (Setaria viridis (SETVI); application rate 320 g/ha): 80%
- post-emergence activity against VERPE in % (Veronica persica (VERPE); application rate 320 g/ha): 90%
- post-emergence activity against MATIN in % [3]: 90%
- post-emergence activity against ECHCG in % ([5]; application rate 320 g/ha): 90%

Structure (SMILES): CC(C)C(=O)N1C[S+]([O-])c2cc(Br)c(-c3ccccc3)nc21 (stereo not drawn) [Example I-067]
- crop plant damage (phytotoxicity) in % at 80 g/ha (Brassica napus (BRSNW); [7]): 0%
- pest or weed control at 320 g/ha (Setaria viridis (SETVI); Setaria viridis, 504 h, application rate 320 g/ha, read-out: post-emergence activity against SETVI in %): 80%
- pre-emergence activity against TRZAS in % (crop plant damage) ([1]; application rate 80 g/ha): 10%
- percent crop plant damage (wheat, post-emergence) at 320 g/ha ([2]; application rate 320 g/ha): 0%

Structure (SMILES): Fc1ccccc1-c1nc2c(cc1Br)SCN2 [Example I-001, 6-bromo-5-(2-fluorophenyl)-2,3-dihydro[1,3]thiazolo[4,5-b]pyridine]
- crop plant damage (phytotoxicity) in % at 80 g/ha (Brassica napus (BRSNW); [7]): 20%
- pest or weed control at 80 g/ha (Setaria viridis (SETVI); Setaria viridis, 504 h, application rate 80 g/ha, read-out: post-emergence activity against SETVI in %): 90%
- percent crop plant damage (wheat, post-emergence) at 80 g/ha ([2]; application rate 80 g/ha): 0%

Structure (SMILES): Cc1cc2c(nc1-c1ccccc1)N(C(=O)C1(C)CC(Cl)=NO1)CS2 (stereo not drawn) [Example I-088]
- post-emergence activity against BRSNW in % (Brassica napus (BRSNW); application rate 80 g/ha): 0%
- pre-emergence activity against STEME in % (Stellaria media (STEME); application rate 1280 g/ha): 90%
- post-emergence activity against VERPE in % (Veronica persica (VERPE); application rate 1280 g/ha): 90%
- post-emergence activity against MATIN in % [3]: 90%
- post-emergence activity against ECHCG in % ([5]; application rate 320 g/ha): 90%
- pre-emergence activity against TRZAS in % (crop plant damage) ([1]; application rate 80 g/ha): 0%
- post-emergence activity against TRZAS in % ([2]; application rate 320 g/ha): 20%

— patent US20240381872A1, “SUBSTITUTED 2,3-DIHYDRO[1,3]THIAZOLO[4,5-B]PYRIDINES, SALTS THEREOF AND THEIR USE AS HERBICIDALLY ACTIVE SUBSTANCES” (BAYER AKTIENGESELLSCHAFT, priority 2021, published 2024)
